These results are taken from article PMC12035805, “A Water-Soluble Aggregation-Induced Emission Photosensitizer with Intrinsic Antibacterial Activity as an Antiplanktonic and Antibiofilm Therapeutic Agent” (Journal of Medicinal Chemistry, 2025).

Values after ≈ are worked out from the molar mass of the structure shown. Read-outs that look alike come from different tables or passages of the source.

Series [1] has as its system P. aeruginosa (ATCC 27853). The series is described as follows: MIC assay (broth microdilution, CLSI), without light. It is filed as cell-based. The following applies: Pseudomonas aeruginosa, ATCC27853, light or radiation study; without light irradiation; read-out: MIC against P. aeruginosa (ATCC 27853). On the procedure:
(§1) The MIC assays of TPA-1 were conducted according to the broth microdilution methods described in the Clinical and Laboratory Standards Institute (CLSI) standard. A single colony of S. aureus (ATCC 29213), methicillin-resistant S. aureus (BAA 41), or P. aeruginosa (ATCC 27853) on an LB agar plate was picked and suspended in Mueller–Hinton Broth (MHB). The bacterial culture was grown overnight at 37 °C. The next day, the bacteria culture was diluted 100 times in fresh MHB and grown to the mid log phase. Bacteria in the mid log phase were further diluted to 5 × 10^6 CFU/mL in cation-adjusted MHB (S. aureus) or MHB (P. aeruginosa). Ten μL of the diluted bacteria were added to a 96-well plate containing 90 μL of serial diluted TPA-1 in the corresponding medium. The plate was incubated overnight at 37 °C. The MICs of the TPA compounds were the concentrations at which no apparent bacteria were observed by the naked eye. Different concentrations of LTA were also added to examine the change in MIC values of TPA-1 against S. aureus. The experiments were conducted in triplicate.

The subject of the next series is S. aureus (ATCC 29213). The description is as above. In kind it is cell-based. The note with it: Staphylococcus aureus, ATCC29213, light or radiation study, read-out: MIC against S. aureus (ATCC 29213). On the procedure:
as §1

Series [2] in a line: Log P, 1-octanol/water partition. In kind it is physicochemical. The following applies: 1-octanol/water (1:1). On the procedure:
The log P values of TPA compounds were obtained according to previously reported methods.[66] 1-octanol was first presaturated with water. Equal volume and concentration of TPA-NC-1, TPA-0, and TPA-1 were added to a 1-octanol/water (1:1) mixture and vortexed for 1 min. The mixture was then centrifuged for 5 min at 13,500 rpm. After that, the absorptions of the compound in the 1-octanol and water phases were measured. The concentrations of the compound in both phases were calculated by using the absorption calibration curve of the corresponding compound. Log P = log (concentration of the compound in 1-octanol/concentration of the compound in water).

Series [3] in a line: Hemolysis of human erythrocytes. It is filed as cell-based. The following applies: 200 μM compound, 1 h, 37 °C. On the procedure:
(§2) The human erythrocyte concentrate was prepared according to the kit manual from the Biomaterial Hemolytic Assay Kit (Hemoscan). After the human erythrocytes had been washed and diluted with manufacture buffer, 100 μL of erythrocytes (10%) were added into 100 μL of various concentrations of compounds in PBS. 1% of Triton X (1%) was the positive control, while PBS was the negative control. The erythrocytes were then gently mixed with the TPA compounds and further incubated for an hour at 37 °C. After that, the erythrocytes were centrifuged (1000 rpm, 5 min), and 20 μL of supernatant was added to 180 μL of PBS in a 96-well plate. The optical density at 380, 415, and 450 nm was measured by a plate reader. The final OD value of the compounds was calculated as (2 × OD415) – (OD450 + OD380) where OD380, OD415, and OD450 are the optical density of the solution at 380, 415, and 450 nm, respectively. The hemolysis rates of the compounds were calculated as (ODcompound – ODPBS)/(ODTritonX – ODPBS) × 100% where ODcompound, ODPBS, and ODTritonX are the final OD values of the erythrocytes mixed with TPA compounds, PBS, and 1% Triton X, respectively. The experiment was performed in triplicate.

Another series concerns human erythrocytes. Nature of the series: Hemolysis of human erythrocytes. In kind it is cell-based. Here is the method: as §2
Series [4] can be described thus: Cytotoxicity (MTT) assay against HFF-1 cells. The note with it: human, no irradiation, read-out: 50% cytotoxicity concentration (CC50) against HFF-1 cells. It is filed as cell-based. On the procedure: The cytotoxicity of TPA-1, TPA-0, and TPA-NC-1 against HFF-1 cells was evaluated using the 3-(4,5-dimethylthiazol-2-yl)-2,5-diphenyltetrazolium bromide (MTT) assay kit from ThermoFisher Scientific. In general, HFF-1 cells (MEM, 10% FBS, and 1% penicillin-streptomycin) were seeded in a 96-well plate with a density of 3000 cells/well overnight at 37 °C with 5% CO2. Then, the cells were treated with different concentrations of compounds for 24 h. MTT (10 μL, 5 mg/mL) was added to the medium, and the cells were further incubated for 3 h. The medium was then replaced by DMSO (100 μL). After gently shaking the plate for 30 s, the optical density of the solutions at 570 nm was measured by a BMG Labtech CLARIOstar microplate reader. The cell viability was calculated as (ODcompound – ODDMSO)/(ODmedium - ODDMSO) × 100% where ODcompound, ODmedium, and ODDMSO are the optical densities of the treated cell, nontreated cells, and DMSO at 570 nm, respectively. The experiment was conducted in triplicate. The CC50 values were calculated using GraphPad Prism 8.

Series [5] has as its system methicillin-resistant S. aureus (BAA 41). Nature of the series: MIC assay (broth microdilution, CLSI), without light. It is filed as cell-based. The note with it: Staphylococcus aureus, BAA41, light or radiation study, read-out: MIC against methicillin-resistant S. aureus (BAA 41). Here is the method:
as §1

In the next series the test system is S. aureus. Nature of the series: Resistance development assay on S. aureus. In kind it is cell-based, Staphylococcus aureus. On the procedure: The MICs for TPA-1 and norfloxacin against S. aureus were first determined by the above-mentioned method. The wells with 0.5 × MIC of compounds were transferred to 1 mL fresh MHB and incubated under darkness for 3–4 h at 37 °C. The bacteria were then used to conduct a MIC assay again. The experiments were repeated for 20 days. The fold changes in the MIC values of the compounds were recorded. The experiments were performed in duplicate.

As usually defined, the MIC is the smallest concentration in the dilution series that meets the test's criterion for growth inhibition. As to `C[C@@H](O)[C@H]1C(=O)N2C(C(=O)O)=C(S[C@@H]3CN[C@H](C(=O)N(C)C)C3)[C@H](C)[C@H]12` [Meropenem, reference compound], the figures for the MIC (in series [1]; in the series on S. aureus (ATCC 29213) (without light irradiation)) were 2.5 µM (≈ 0.959 µg/mL) and 0.312 µM (≈ 0.12 µg/mL), respectively.
As a reminder, the logP is a log measure of how a compound divides between an organic and an aqueous phase. The term HC50 denotes the concentration giving 50% haemolysis. A high value points to less damage to red cells. For the molecule `CC[n+]1c(/C=C/c2ccc(-c3ccc(N(c4ccc(OCCC[N+](C)(C)C)cc4)c4ccc(OCCC[N+](C)(C)C)cc4)cc3)s2)sc2ccccc21.[Br-].[Br-].[Br-]` [TPA-0], in series [2], the logP was -1.7. In series [3], this molecule gave a hemolysis at 1 h, 200 µM of less than 3%. The same molecule came in with an HC50 in the series on human erythrocytes of more than 200 µM. Besides, the CC50 at 24 h in series [4] was 120 ± 20 µM.
On the same counts, the results for `CC[n+]1c(/C=C/c2ccc(-c3ccc(N(c4ccc(OC)cc4)c4ccc(OC)cc4)cc3)s2)sc2ccccc21.[Br-]` [TPA-NC-1, reference compound] are 1.1, more than 60%, less than 200 µM and 7.8 ± 0.7 µM.
Regarding `CN[C@H](CC(C)C)C(=O)N[C@H]1C(=O)N[C@@H](CC(N)=O)C(=O)N[C@H]2C(=O)N[C@H]3C(=O)N[C@H](C(=O)N[C@H](C(=O)O)c4cc(O)cc(O)c4-c4cc3ccc4O)[C@H](O)c3ccc(c(Cl)c3)Oc3cc2cc(c3O[C@@H]2O[C@H](CO)[C@@H](O)[C@H](O)[C@H]2O[C@H]2C[C@](C)(N)[C@H](O)[C@H](C)O2)Oc2ccc(cc2Cl)[C@H]1O` [Vancomycin, reference compound], the MIC (in series [5]; in the series on S. aureus (ATCC 29213)) was 0.625 µM (≈ 0.906 µg/mL) throughout.
Take `CCn1cc(C(=O)O)c(=O)c2cc(F)c(N3CCNCC3)cc21` [norfloxacin, reference compound]: the “increase of MIC against S. aureus after treatment for 20 days” value in the series with S. aureus (20 days of passages at 0.5 × MIC) came out at 1024 fold. Moreover, the MIC with S. aureus (Staphylococcus aureus, read-out: initial MIC against S. aureus in resistance development assay) is 0.5 µM (≈ 0.16 µg/mL).
